The subject of one data set is MDCK. Kind of data set: MDCK BBB Assay. The class given is in vitro ADME. The settings on record: for % Permeable: MDCK BBB assay; for MDCK BBB Assay (Basolateral/Apical Peak Area Ratio) Mean: MDCK cells.
Data set [1] addresses T1, hCB1 (Homo sapiens, UniProt P21554). Kind of data set: functional fluorescent CB1 activated Gαq16-coupled intracellular calcium mobilization assay in CHO-K1 cells. The following applies: average of 3-6 measurements, read-out: Apparent antagonist dissociation constant (Ke) at hCB1. On the set-up: expressed in transfected cells; host or cells: CHO-K1 (membranes). The class given is cell-based. On the technique in general: Calcium assays in cells follow changes in intracellular calcium, usually with a dye or a luminescent sensor.

Data set [2] concerns the target T1, hCB1. Kind of data set: radioligand displacement binding at CB1 (membranes of CHO-K1 cells over-expressing receptor). The following applies: for CB2 Ki/CB1 Ki selectivity ratio: CB1 versus CB2. A general note: Displacement assays read how much labelled ligand stays bound in the presence of the test substance.
Protocol: (§1) All compounds were characterized by H^1 NMR and evaluated using a calcium mobilization assay. […] Further characterization of select compounds was performed using radioligand displacement of [3H]1 and equilibrium dissociation constant (Ki) values were determined.
A further data set addresses hCB2 (Homo sapiens, UniProt P34972). As to the kind of experiment: radioligand displacement binding at CB2 ([3H]CP55940, membranes of CHO-K1 cells over-expressing receptor).
A short description of data set [3]: in vivo brain penetration, brain and plasma levels by LC/MS/MS. The settings on record: mouse, po, mice, cassette dosed orally at 2.5 mg/kg, read-out: Brain:Plasma Ratio. The method, then: Select compounds were chosen for in vivo studies to determine penetration into the CNS. Compounds were cassette dosed orally at 2.5 mg/kg in mice. Brain and plasma samples were collected at 1, 2, 4, and 24 hours post dose and samples were analyzed by LC/MS/MS (Table 5, below). Unperfused brains were used which contain a blood volume of approximately 4%.

For a further data set, the system named is mouse model of AS. As to the kind of experiment: alcohol induced liver steatosis mouse model, Oil Red O staining of liver sections. The format is in vivo, C57BL/6J mice. An excerpt:
FIG. 1A-1B. […] (FIG. 1A) Representative liver sections from mice receiving control diet without ethanol+vehicle (left panel), ethanol containing diet+vehicle (center panel) or ethanol containing diet+98 (right panel).
Pathogen-free female C57BL/6J mice, aged 9 weeks (Jackson Laboratories, Bar Harbor, Me., USA) weighing 19-21 g were used in this study. C57BL/6 mice were offered solid PicoLab Certified Rodent LabDiet® 5053 (pellet) ad libitum during the acclimation period following which, all animals were switched to a Lieber-DeCarli 82′ Control (Catalog No: F1259SP, BioServ®) diet which was nutritionally complete. […] Digitized images of mouse liver sections (10 μm in thickness) were assessed semi-quantitatively for degree of steatosis using Image J software (NIH, Bethesda, Md.). Briefly, a 5 in^2 digital grid (Image J Command Menu: Plugin-Analyze-Grid) was placed on each image wherein lipid droplets in 6 grids per image were counted and the average number of oil droplets was recorded for each animal (n=6, per group). […] Statistical significance was determined through ANOVA between treatment and control groups using Graph Pad Prism 7.0 (GraphPad Software Inc., La Jolla, Calif., USA) at a confidence level of *p<0.001.
In contrast, the ethanol containing diet caused significant accumulation of lipid droplets (center panel in FIG. 1A). […] The data are quantified in FIG. 1B.

In the next data set the test system is alcoholic steatosis, AS. The following applies: past studies; cited from earlier work.
The mark [4] stands for this setting: read-out: Binding affinity (Ki) at hCB1, radioligand displacement, CHO-K1 membranes, average of 3-6 measurements.

Entries after “also recorded” stand apart in the source; their conditions may differ. Like-named read-outs stand apart in the source and are kept apart here.

Here are results for 10 compounds from patent US10696677B2 (Research Triangle Institute, priority 2016, dated 2020).

A word on the melting point: it is the temperature of the solid-liquid transition. Broadly, the Ki is the equilibrium dissociation constant of an inhibitor or competing ligand from its target.

Sequence of hCB2 (P34972 whole entry, the tested form may be a part): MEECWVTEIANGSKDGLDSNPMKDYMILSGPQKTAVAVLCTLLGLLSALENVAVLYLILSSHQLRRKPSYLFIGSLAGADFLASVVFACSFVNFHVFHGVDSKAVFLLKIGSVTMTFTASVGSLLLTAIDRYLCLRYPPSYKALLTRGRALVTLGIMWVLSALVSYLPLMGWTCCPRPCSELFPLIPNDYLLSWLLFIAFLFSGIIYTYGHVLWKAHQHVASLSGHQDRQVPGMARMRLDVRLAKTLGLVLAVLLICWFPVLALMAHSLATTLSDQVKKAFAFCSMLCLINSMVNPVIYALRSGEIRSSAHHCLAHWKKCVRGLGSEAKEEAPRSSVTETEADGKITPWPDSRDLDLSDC
T1 sequence (P21554 whole entry): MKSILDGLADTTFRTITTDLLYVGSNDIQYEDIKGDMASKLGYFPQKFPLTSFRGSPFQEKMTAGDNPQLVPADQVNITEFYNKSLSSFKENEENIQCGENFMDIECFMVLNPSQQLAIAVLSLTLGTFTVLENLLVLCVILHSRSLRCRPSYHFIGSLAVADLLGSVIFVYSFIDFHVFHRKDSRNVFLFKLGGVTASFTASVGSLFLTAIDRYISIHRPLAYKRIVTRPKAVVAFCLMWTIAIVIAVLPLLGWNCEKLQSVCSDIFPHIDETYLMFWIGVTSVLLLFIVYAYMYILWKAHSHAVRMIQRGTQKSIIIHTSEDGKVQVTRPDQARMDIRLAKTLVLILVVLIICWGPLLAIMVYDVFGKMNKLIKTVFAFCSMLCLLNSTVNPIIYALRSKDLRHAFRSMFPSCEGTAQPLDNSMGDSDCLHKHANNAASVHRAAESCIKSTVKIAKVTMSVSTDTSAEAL
Protocol for hCB2: as §1

In turn, `O=S(=O)(NC1CCN(c2ncnc3c2nc(-c2ccccc2Cl)n3-c2ccc(Cl)cc2)CC1)c1ccc(F)cc1F` [Compound 5, N-{1-[8-(2-Chlorophenyl)-9-(4-chlorophenyl)-9H-purin-6-yl]piperidin-4-yl}-2,4-difluorobenzene-1-sulfonamide] yielded a melting point of 232 to 233 °C. Also, in the data set on MDCK, the “% Permeable” value stood at 0% and the “MDCK BBB Assay (Basolateral/Apical Peak Area Ratio) Mean” value is recorded as 0.0008. Further, the Kb at hCB1 [1] came out at 2 nM. In addition, on hCB1 [2], the “CB2 Ki/CB1 Ki selectivity ratio” value was found to be 26000. Also, the Ki at hCB1 [2] (setting [4]) stood at 2 nM. Besides, the affinity at hCB2 corresponds to a Ki of 53000 nM.
As to `O=C(Nc1ccccc1F)NC1CCN(c2ncnc3c2nc(-c2ccccc2Cl)n3-c2ccc(Cl)cc2)CC1` [Compound 19, 3-{1-[8-(2-Chlorophenyl)-9-(4-chlorophenyl)-9H-purin-6-yl]piperidin-4-yl}-1-(2-fluorophenyl)urea], the “% Permeable” value with MDCK is 0%. The Kp in data set [3] was 0.03.
Take `N=C(NC1CCN(c2ncnc3c2nc(-c2ccccc2Cl)n3-c2ccc(Cl)cc2)CC1)c1ccc(F)cc1` [Compound 26, N-{1-[8-(2-chlorophenyl)-9-(4-chlorophenyl)-9H-purin-6-yl]piperidin-4-yl}-4-fluorobenzenecarboximidamide]: in the data set on MDCK, the “% Permeable” value stood at 0% and the “MDCK BBB Assay (Basolateral/Apical Peak Area Ratio) Mean” value stood at 0.0019. Also, in data set [3], the Kp is 0.16. Moreover, the Kb on hCB1 [1] came to 44 nM. On hCB1 [2], the Ki worked out at 520 nM and the “CB2 Ki/CB1 Ki selectivity ratio” value was greater than 11. On hCB2, this compound showed a Ki greater than 6000 nM.
The compound `O=C(Nc1ccc(OC(F)F)nc1)N1CCN(c2ncnc3c2nc(-c2ccccc2Cl)n3-c2ccc(Cl)cc2)CC1` [Compound 44, 4-[8-(2-Chlorophenyl)-9-(4-chlorophenyl)-9H-purin-6-yl]-N-[6-(difluoromethoxy)pyridin-3-yl]piperazine-1-carboxamide] had a melting point of 118 to 120 °C. Besides, the Kp in data set [3] was 0.18. Also, the Ki on hCB1 [2] (setting [4]) stood at 4 nM. In addition, the affinity on hCB2, expressed as Ki, was 74000 nM.
For the compound `FC(F)Oc1ccc(-n2c(-c3ccccc3Cl)nc3c(N4CCN(Cc5ccccc5Cl)CC4)ncnc32)cn1` [Compound 46, 8-(2-Chlorophenyl)-6-{4-[(2-chlorophenyl)methyl]piperazin-1-yl}-9-[6-(difluoromethoxy)pyridin-3-yl]-9H-purine], the melting point lay in the range of 147 to 149 °C. The Kb at hCB1 [1] was found to be 27 nM. Besides, on hCB1 [2], the affinity corresponds to a Ki of 7 nM and the “CB2 Ki/CB1 Ki selectivity ratio” value was 34. Besides, the affinity at hCB2 corresponds to a Ki of 240 nM.
On to `CCCCC(=O)NC1CCN(c2ncnc3c2nc(-c2ccncc2Cl)n3-c2ccc(Cl)cc2)CC1` [Compound 91, N-{1-[9-(4-chlorophenyl)-8-(3-chloropyridin-4-yl)-9H-purin-6-yl]piperidin-4-yl}pentanamide], for which, in the data set on MDCK, the “% Permeable” value worked out at 41% and the “MDCK BBB Assay (Basolateral/Apical Peak Area Ratio) Mean” value is 0.409. Moreover, at hCB1 [1], the Kb stood at 27.8 nM. In addition, on hCB1 [2], the inhibition constant Ki was determined as 9.2 nM and the “CB2 Ki/CB1 Ki selectivity ratio” value is reported as 126. This compound gave a Ki on hCB2 of 1150 nM.
For the compound `CCCCC(=O)NC1(c2ccccc2)CCN(c2ncnc3c2nc(-c2ccncc2Cl)n3-c2ccc(Cl)cc2)CC1` [Compound 93, N-{1-[9-(4-chlorophenyl)-8-(3-chloropyridin-4-yl)-9H-purin-6-yl]-4-phenylpiperidin-4-yl}pentanamide], in the data set on MDCK, the “% Permeable” value is given as 0% and the “MDCK BBB Assay (Basolateral/Apical Peak Area Ratio) Mean” value came to 0.000. Besides, the Kb on hCB1 [1] was determined as 18.5 nM. On hCB1 [2], the Ki amounted to 17.9 nM and the “CB2 Ki/CB1 Ki selectivity ratio” value came out at 46. Besides, the affinity at hCB2 corresponds to a Ki of 830 nM.
Consider `Clc1ccc(-n2c(-c3ccccc3Cl)nc3c(N4CCN(Cc5ccccc5Cl)CC4)ncnc32)cc1` [Compound 98, 6-[4-(2-Chlorobenzyl)piperazin-1-yl]-8-(2-chlorophenyl)-9-(4-chlorophenyl)-9H-purine], for which the Kp in data set [3] came to 0.06. Moreover, the “hepatic lipid accumulation / liver steatosis (Oil Red O lipid droplets)” value with mouse model of AS (ethanol diet-fed mice, 1.25 mg/kg twice daily by oral gavage, two weeks, vs ethanol+vehicle, 1.25 mg/kg) is listed as “significantly reduced hepatic lipid accumulation; also recorded: statistically significant reduction of liver steatosis”. Besides, the “disease progression/development in a mouse model of AS” value in the data set with mouse model of AS (mouse model of alcoholic steatosis) is recorded as “block disease progression/development”.
As for `Clc1ccc(-n2c(-c3ccccc3Cl)nc3c(N4CCN(Cc5cccc(Cl)c5)CC4)ncnc32)cc1` [Compound 99, 6-[4-(3-Chlorobenzyl)piperazin-1-yl]-8-(2-chlorophenyl)-9-(4-chlorophenyl)-9H-purine], the Kp in data set [3] is 0.09.
On to `Cc1c(C(=O)NN2CCCCC2)nn(-c2ccc(Cl)cc2Cl)c1-c1ccc(Cl)cc1` [rimonabant], for which the “reduction of alcoholic steatosis (AS)” value in the data set on alcoholic steatosis, AS was “effective in reducing AS”.
